In the oligonucleotide strings, read from the 5' end, every base follows the letter of its sugar. An asterisk marks phosphorothioate; unmarked linkages are phosphodiester. Other units and linkages are bracketed, terminal groups are in braces. A string of capitals states the bases alone. {NAG37} = tridentate N-acetyl-galactosamine targeting ligand, structure (NAG37)s; [invAb] = inverted abasic unit; m = 2'-O-methyl; f = 2'-fluoro
Legend:
ANGPTL3 protein = test: Example 12: serum ANGPTL3 protein by ELISA in LDLR knockout mice; format: in vivo, LDLR KO mice
Text: To evaluate the effect of RNAi agent administration in a disease model, mice having a genetic mutation for the LDL receptor (referred to herein as LDLR KO mice) were commercially obtained (The Jackson Laboratory). The LDLR KO mice are homozygous for the Ldlr^tm1Her mutation, and have elevated serum cholesterol levels, particularly when placed on a high fat diet. For three weeks prior to the onset of the study, thirty-nine (39) LDLR KO mice were placed on a high fat diet (Teklad Custom Diets TD.88137). An additional eight (8) LDLR KO mice were placed on a normal chow diet over the same three-week period. Pre-dose serum samples were taken on day −15 and day −1 after a four hour fast. At day 1, each mouse was given a single subcutaneous administration of 200 μl/30 g animal body weight containing the respective mg/kg dose of an ANGPTL3 RNAi agent in D5W (dextrose in 5% water), control (D5W) with no RNAi agent, or a control RNAi agent that included a nucleotide sequence designed to target the Hepatitis B Virus (HBV) genome. A second injection of the same formulation was administered to the animals on day 29. The dosing regimen for the study is recited in the following Table 60:
Each mouse remained on its respective diet through the duration of study. The RNAi agent tested (AD05488) included a modified sequence and an N-acetyl-galactosamine-containing targeting ligand conjugated to the 5′ terminal end of the sense strand. (See Tables 3, […] modified sequences and targeting ligand structures). The injections were performed between the skin and muscle (i.e. subcutaneous injections) into the loose skin over the neck and shoulder area. Serum was collected on days 8, 15, 22, 29 (pre-second dose), 36, 43, 50, and 57. LDLR KO mice were fasted for four hours prior to each collection. On day 15, four (4) LDLR KO mice from Groups 1, 2, and 3 (i.e., the groups being administered the high fat “Western” diet) were sacrificed after serum collection, and on day 29, an additional four (4) LDLR KO mice from Groups 1, 2, and 3 were sacrificed after serum collection, for the purpose of performing mRNA assessments.
ANGPTL3 protein levels in serum were measured by ELISA assay (R&D Systems), according to the manufacturer's recommendations. Triglycerides, total cholesterol, high-density lipoprotein (HDL), and low-density lipoprotein (LDL) in serum were measured on a Cobas® Integra 400 (Roche Diagnostics), according to the manufacturer's recommendations.
The ANGPTL3 protein levels, triglyceride levels, total cholesterol levels, HDL levels, and LDL levels for each animal were normalized. For normalization, respective levels of ANGPTL3 protein, TG, total cholesterol, HDL, or LDL for each animal at a time point was divided by the average pre-treatment level of expression in that animal (in this case the average of day −15 and day −1) to determine the ratio of expression “normalized to pre-treatment.”
Expression at a specific time point was then normalized to the D5W control group that was administered the same diet (i.e., either the high fat “Western” diet or the normal chow-fed diet) by dividing the “normalized to pre-treatment” ratio for an individual animal by the mean “normalized to pretreatment” ratio of all mice in the D5W control group on the respective same diet, resulting in expression for each time point normalized to that in the control group.

ANGPTL3 gene = test: Example 6: serum triglycerides in mice; format: in vivo, C57bl/6 mice
Procedure: To assess the in vivo activity of additional ANGPTL3 RNAi agents that are designed to target position 304 on the ANGPTL3 gene, six- to eight-week-old female C57bl/6 mice were used. Pre-dose serum samples were taken at day −1 after a four hour fast. At day 1, each mouse was given a single subcutaneous administration of 200 μl containing 0.5 mg/kg (mpk) of an ANGPTL3 RNAi agent in D5W (dextrose in 5% water), or control (D5W) with no RNAi agent, according to the dosing groups recited in Table 25.
Each of the RNAi agents included a modified sequence and an N-acetyl-galactosamine-containing targeting ligand conjugated to the 5′ terminal end of the sense strand. (See Tables 3, 4, and 5 for modified sequences and targeting ligand structures). The injections were performed between the skin and muscle (i.e. subcutaneous injections) into the loose skin over the neck and shoulder area. Three (3) mice in each group were tested (n=3). Serum was collected on days 8, 15, 22, 30, and on day 43 for certain groups (i.e., Groups 1, 2, 5, and 10 only). Mice were fasted for four hours prior to each collection. ANGPTL3 protein levels in serum were measured by ELISA assay (R&D Systems), according to the manufacturer's recommendations. Triglycerides, total cholesterol, high-density lipoprotein (HDL), and low-density lipoprotein (LDL) in serum were measured on a Cobas® Integra 400 (Roche Diagnostics), according to the manufacturer's recommendations.
The ANGPTL3 protein levels, triglyceride levels, total cholesterol levels, HDL levels, and LDL levels for each animal were normalized. For normalization, the level of ANGPTL3 protein, triglyceride, HDL, and total cholesterol, respectively, for each animal at a time point, was divided by the pre-treatment level of expression in that animal (in this case at day −1) to determine the ratio of expression “normalized to pre-treatment.” Expression at a specific time point was then normalized to the D5W control group by dividing the “normalized to pre-treatment” ratio for an individual animal by the mean “normalized to pretreatment” ratio of all mice in the D5W control group.

[1] = day 57, two 3 mg/kg doses, LDLR KO mice on high fat Western diet

Substance: AD05488: RNAi agent duplex: antisense AM07235-AS, sense AM07234-SS (antisense mU*fA*mC*fUmGfAmUfCmAfAmAfUmAfUmGfUmUfGmAfG*mC; sense {NAG37}*[invAb]*mGmCmUmCmAmAmCmAfUfAfUmUmUmGmAmUmCmAmGmUmA*[invAb])
- reductions in ANGPTL3 protein levels (ANGPTL3 protein; 3.0 mg/kg on days 1 and 29 (Groups 2 and 5), LDLR KO mice): significant reductions
- Avg ANGPTL3 Protein Normalized to Pre-Treatment and Control (Diet Matched) (ANGPTL3 protein; 3.0 mg/kg sc day 1, High Fat Diet, Day 8): 0.013
- Avg ANGPTL3 Protein Normalized to Pre-Treatment and Control (Diet Matched) (ANGPTL3 protein; 3.0 mg/kg sc day 1, High Fat Diet, Day 15): 0.009
- Avg ANGPTL3 Protein Normalized to Pre-Treatment and Control (Diet Matched) (ANGPTL3 protein; 3.0 mg/kg sc day 1, High Fat Diet, Day 22): 0.011
- Avg ANGPTL3 Protein Normalized to Pre-Treatment and Control (Diet Matched) (ANGPTL3 protein; 3.0 mg/kg sc day 1, High Fat Diet, Day 29 (pre-second dose)): 0.011
- Avg ANGPTL3 Protein Normalized to Pre-Treatment and Control (Diet Matched) (ANGPTL3 protein; 3.0 mg/kg sc day 1, Normal Diet, Day 8): 0.042
- Avg ANGPTL3 Protein Normalized to Pre-Treatment and Control (Diet Matched) (ANGPTL3 protein; 3.0 mg/kg sc day 1, Normal Diet, Day 15): 0.037
- Avg ANGPTL3 Protein Normalized to Pre-Treatment and Control (Diet Matched) (ANGPTL3 protein; 3.0 mg/kg sc day 1, Normal Diet, Day 22): 0.043
- Avg ANGPTL3 Protein Normalized to Pre-Treatment and Control (Diet Matched) (ANGPTL3 protein; 3.0 mg/kg sc day 1, Normal Diet, Day 29 (pre-second dose)): 0.060
- Avg ANGPTL3 Protein Normalized to Pre-Treatment and Control (Diet Matched) (ANGPTL3 protein; 3.0 mg/kg sc days 1 and 29, High Fat Diet, Day 36): 0.005
- Avg ANGPTL3 Protein Normalized to Pre-Treatment and Control (Diet Matched) (ANGPTL3 protein; 3.0 mg/kg sc days 1 and 29, High Fat Diet, Day 43): 0.005
- Avg ANGPTL3 Protein Normalized to Pre-Treatment and Control (Diet Matched) (ANGPTL3 protein; 3.0 mg/kg sc days 1 and 29, High Fat Diet, Day 50): 0.005
- Avg ANGPTL3 Protein Normalized to Pre-Treatment and Control (Diet Matched) (ANGPTL3 protein; 3.0 mg/kg sc days 1 and 29, High Fat Diet, Day 57): 0.007
- Avg ANGPTL3 Protein Normalized to Pre-Treatment and Control (Diet Matched) (ANGPTL3 protein; 3.0 mg/kg sc days 1 and 29, Normal Diet, Day 36): 0.024
- Avg ANGPTL3 Protein Normalized to Pre-Treatment and Control (Diet Matched) (ANGPTL3 protein; 3.0 mg/kg sc days 1 and 29, Normal Diet, Day 43): 0.024
- Avg ANGPTL3 Protein Normalized to Pre-Treatment and Control (Diet Matched) (ANGPTL3 protein; 3.0 mg/kg sc days 1 and 29, Normal Diet, Day 50): 0.032
- Avg ANGPTL3 Protein Normalized to Pre-Treatment and Control (Diet Matched) (ANGPTL3 protein; 3.0 mg/kg sc days 1 and 29, Normal Diet, Day 57): 0.037
- ANGPTL3 protein normalized to pre-treatment and control (diet matched) (ANGPTL3 protein; [1]): 0.007
- reduction in ANGPTL3 protein levels compared to control (ANGPTL3 protein; [1]): approximately 99%
- Avg TG, normalized to pre-treatment and control (ANGPTL3 gene; Day 8, 0.5 mg/kg single SC injection on day 1, n=3): 0.568
- Avg TG, normalized to pre-treatment and control (ANGPTL3 gene; Day 15, 0.5 mg/kg single SC injection on day 1, n=3): 0.637
- Avg TG, normalized to pre-treatment and control (ANGPTL3 gene; Day 22, 0.5 mg/kg single SC injection on day 1, n=3): 0.484
- Avg TG, normalized to pre-treatment and control (ANGPTL3 gene; Day 30, 0.5 mg/kg single SC injection on day 1, n=3): 0.652
- Avg TG, normalized to pre-treatment and control (ANGPTL3 gene; Day 43, 0.5 mg/kg single SC injection on day 1, n=3): 0.689
